One data set deals with IL-6. Nature of the data set: IL-6 assay (ELISA) in Ad5-wt-ER infected HAECT-1 cells. The note with it: for ER/IL-6 % Eff: relative to the maximal inhibition observed with E2; for IC50: IL-1 treated. The class given is cell-based, human. As to the method: (§1) After four hours, cells were washed with EBM-BSA and incubated overnight in the same medium. […] After two hours, cells were washed and incubated at 34° C. for 1 hour. Cells were then washed, trypsinized, counted and resuspended in 95% FBS/5% dimethylsulfoxide at a concentration of 4×10^6 cells/ml, frozen as 1 or 5 ml aliquots in cryo-vials and stored at −150° C. Control (no ER infection) cells were processed as above without Ad5-wt-hER virus infection. […] Cells were subsequently washed with 300 l of Dulbecco's phosphate buffered saline and lysed in 50 l of Cell Culture Lysis Reagent (Promega). Luciferase was determined on a Wallac Victor^2 Luminometer (Gaithersburg, Md.) using 10 l of lysate and mixing with 100 l of Promega Luciferase Assay reagent. Creatine kinase was determined from the rate of increase in A340 following addition of 100 l of CK assay reagent (Sigma, cat. […] For IC50 and EC50 calculations, mean IL-6, luciferase or CK values versus log10 of the compound concentration were fitted to a four parameter logistic equation. The IC50/EC50 value, ‘Hill slope’, upper and lower limits of the curve were iteratively estimated.
In general terms: ELISA stands for enzyme-linked immunosorbent assay.

The next data set concerns creatine kinase. Nature of the data set: Creatine kinase assay in Ad5-wt-ER infected HAECT-1 cells. The class given is cell-based, human. The note with it: for EC50: Homo sapiens, HAECT1, N/O = activity not observed at doses tested, read-out: ER/CK EC50; for ER/CK % Eff*: relative to the maximal stimulation observed with E2; for ER/CK EC50: N/O = activity not observed at doses tested. As to the method:
as §1

The next data set deals with NF-κB. Nature of the data set: NFκB-luciferase assay in Ad5-wt-ER infected HAECT-1 cells. The class given is cell-based, human. The note with it: for IC50: IL-1 treated, read-out: ER/NF-KB-luc IC50; for ER/NF-KB-luc % Eff*: relative to the maximal inhibition observed with E2. The procedure: T-175 flasks of 100% confluent HAECT-1 cells (immortalized human aortic endothelial cells) were washed with 8 ml of HBSS (HEPES buffered saline solution) and infected for four hours with 6 ml of a 1:10 dilution of Ad5-wt-hER virus (an adenovirus transfection vector that mediates CMV promoter driven expression of human ER) in phenol red free Endothelial Cell Basal medium (Clonetics, San Diego Calif., Catalog # CC-3129) containing 0.25% bovine serum albumin (EBM-BSA). After four hours, cells were washed with EBM-BSA and incubated overnight in the same medium. Following overnight incubation, cells were washed with EBM-BSA and infected for 2 hours with 6 ml of a 1:10 dilution of Ad5-3×(NF B).Luc virus (Adenovirus luciferase expression vector driven by 3 repeats of the MHC NF b site 5′ to the thymidine kinase promoter) in EBM-BSA. After two hours, cells were washed and incubated at 34° C. for 1 hour. Cells were then washed, trypsinized, counted and resuspended in 95% FBS/5% dimethylsulfoxide at a concentration of 4×10^6 cells/ml, frozen as 1 or 5 ml aliquots in cryo-vials and stored at −150° C. Control (no ER infection) cells were processed as above without Ad5-wt-hER virus infection.
ER infected HAECT-1 cells or control cells were thawed, diluted 42× in warm EBM-BSA, plated into 96-well plates at 0.1 ml/well and incubated for 4 h at 34° C. Test compounds were added to the cells as 2× stocks in EBM-BSA containing 2 ng/ml IL-1 (R&D Systems) and plates were returned to the incubator (34° C.). After 15-20 h, 100 l aliquots of media were removed from the cells and assayed for IL-6 content using a BioSource human IL-6 ELISA Kit. Cells were subsequently washed with 300 l of Dulbecco's phosphate buffered saline and lysed in 50 l of Cell Culture Lysis Reagent (Promega). Luciferase was determined on a Wallac Victor^2 Luminometer (Gaithersburg, Md.) using 10 l of lysate and mixing with 100 l of Promega Luciferase Assay reagent. Creatine kinase was determined from the rate of increase in A340 following addition of 100 l of CK assay reagent (Sigma, cat. No 47-10) to the remainder of the cell lysate.
For IC50 and EC50 calculations, mean IL-6, luciferase or CK values versus log10 of the compound concentration were fitted to a four parameter logistic equation. The IC50/EC50 value, ‘Hill slope’, upper and lower limits of the curve were iteratively estimated.

[1] abbreviates: Ad5-wt-ER infected HAECT-1 cells.
[2] abbreviates: Homo sapiens, HAECT1, Ad5-wt-ER infected HAECT-1 cells.

What is called melting point is the temperature, or range, at which the solid turns liquid.

Regarding `CCc1cc2c(s1)-c1ccccc1C(CC)N2S(=O)(=O)c1ccc(O)cc1` (stereo not drawn), the melting point fell in the range of 119 to 122 °C.

For `CC1c2ccccc2-c2sccc2N1S(=O)(=O)c1ccc(O)cc1` (stereo not drawn) [Example 4, 4-[(5-Methylthieno[3,2-c]isoquinolin-4(5H)-yl)sulfonyl]phenol], the melting point fell in the range of 163 to 165 °C. In addition, the “ER/IL-6 % Eff” value in the data set on IL-6 (setting [1]) is given as 172%. In the data set with IL-6 (setting [2]), this molecule displayed an IC50 of 66.8 nM. Further, in the data set with creatine kinase, the EC50 was found to be 100 nM and the “ER/CK % Eff*” value came to 42%.

Regarding `CCC1c2ccccc2-c2sccc2N1S(=O)(=O)c1ccc(O)cc1` (stereo not drawn) [Example 5, 4-[(5-Ethylthieno[3,2-c]isoquinolin-4(5H)-yl)sulfonyl]phenol], the melting point was 169 to 171 °C. The “ER/IL-6 % Eff” value in the data set with IL-6 (setting [1]) is 174%. In addition, in the data set on IL-6 (setting [2]), the IC50 came to 21.3 nM. Moreover, the “ER/CK EC50” value in the data set with creatine kinase was “N/O”.

The molecule `CC1c2ccccc2-c2sc(Br)cc2N1S(=O)(=O)c1ccc(O)cc1` (stereo not drawn) [Example 6, 4-[(2-Bromo-5-methylthieno[3,2-c]isoquinolin-4(5H)-yl)sulfonyl]phenol] registered a melting point of 209 to 211 °C. Moreover, the “ER/IL-6 % Eff” value in the data set on IL-6 (setting [1]) is 162%. Further, the IC50 with IL-6 (setting [2]) is 28.2 nM. In addition, the “ER/CK EC50” value with creatine kinase was “N/O”.

For the molecule `C[C@@H]1c2ccccc2-c2sc(Br)cc2N1S(=O)(=O)c1ccc(O)cc1` [Example 7, 4-{[(5R)-2-bromo-5-methylthieno[3,2-c]isoquinolin-4-(5H)-yl]sulfonyl}phenol], in the data set with NF-κB, the IC50 is 1450 nM and the “ER/NF-KB-luc % Eff*” value is 84%. Further, in the data set on IL-6 (setting [1]), the IC50 was 5820 nM and the “ER/IL-6 % Eff” value is 161%. For the same molecule, the “ER/CK EC50” value in the data set on creatine kinase is listed as “N/O”.

Take `C[C@H]1c2ccccc2-c2sc(Br)cc2N1S(=O)(=O)c1ccc(O)cc1` [Example 8, 4-{[(5S)-2-bromo-5-methylthieno[3,2-c]isoquinolin-4-(5H)-yl]sulfonyl}phenol]: in the data set on NF-κB, the IC50 turned out to be 19 nM and the “ER/NF-KB-luc % Eff*” value was determined as 92%. In the data set with IL-6 (setting [1]), the IC50 came out at 8.9 nM and the “ER/IL-6 % Eff” value is given as 164%. In addition, the “ER/CK EC50” value with creatine kinase is given as “N/O”.

Molecule `CCC1c2ccccc2-c2sc(Br)cc2N1S(=O)(=O)c1ccc(O)cc1` (stereo not drawn) [Example 9, 4-[(2-Bromo-5-ethylthieno[3,2-c]isoquinolin-4(5H)-yl)sulfonyl]phenol] registered a melting point of 183 to 185 °C. Besides, the “ER/IL-6 % Eff” value with IL-6 (setting [1]) came to 194%. The molecule also returned an IC50 in the data set with IL-6 (setting [2]) of 7.7 nM. Further, in the data set with creatine kinase, the EC50 stood at 47 nM and the “ER/CK % Eff*” value was determined as 33%.

In turn, `CCC1c2ccccc2-c2sc(-c3ccsc3)cc2N1S(=O)(=O)c1ccc(O)cc1` (stereo not drawn) [Example 10, 4-[(5-Ethyl-2-thien-3-ylthieno[3,2-c]isoquinolin-4(5H)-yl)sulfonyl]phenol] returned a melting point of 195 to 196 °C.

`CCC1c2ccccc2-c2sc(-c3ccccc3)cc2N1S(=O)(=O)c1ccc(O)cc1` (stereo not drawn) [Example 11, 4-[(5-Ethyl-2-phenylthieno[3,2-c]isoquinolin-4(5H)-yl)sulfonyl]phenol]: the “ER/IL-6 % Eff” value with IL-6 (setting [1]) was found to be 132%. In the data set with IL-6 (setting [2]), this molecule gave an IC50 of 24.6 nM. Besides, in the data set with creatine kinase, the EC50 stood at 15 nM and the “ER/CK % Eff*” value is 63%.

For `CC1c2ccccc2-c2sc(Br)cc2N1S(=O)(=O)c1ccc(O)c(Br)c1` (stereo not drawn) [Example 12, 2-Bromo-4-[(2-bromo-5-methylthieno[3,2-c]isoquinolin-4(5H)-yl)sulfonyl]phenol], the “ER/IL-6 % Eff” value in the data set with IL-6 (setting [1]) was 197%. Moreover, the IC50 with IL-6 (setting [2]) turned out to be 1480 nM. For the same molecule, in the data set on creatine kinase, the EC50 was 1540 nM and the “ER/CK % Eff*” value is 35%.

As for `C[C@]12CC[C@@H]3c4ccc(O)cc4CC[C@H]3[C@@H]1CC[C@@H]2O` [Example E2, 17β-estradiol, reference compound], in the data set with IL-6 (setting [1]), the IC50 was 1.7 nM and the “ER/IL-6 % Eff” value is 100%. Moreover, in the data set on creatine kinase, the EC50 was 5.8 nM and the “ER/CK % Eff*” value is listed as 100%.

For the origin of these results see patent US7696221B2, “Thienoisoquinoline-phenylsulfonamides and their use as ER-NFκB inhibitors” (Wyeth LLC, priority 2004, dated 2010).
